Test results as given in PubChem BioAssay (NCI).
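Grown in 96-well plates, cells were treated for 48 hours with each compound at five concentrations. Insufficient inhibition: endpoint recorded as highest concentration tested. GI50 marks 50% less growth. TGI: concentration producing complete growth inhibition.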

Key:
Test in all cases: NCI-60 cell line screen, 48 h
786-0 renal = tested on: 786-0 renal
A498 renal = tested on: A498 renal
A549 NSCLC = tested on: A549 NSCLC
ACHN renal = tested on: ACHN renal
BT-549 breast = tested on: BT-549 breast
CAKI-1 renal = tested on: CAKI-1 renal
CCRF-CEM leukemia = tested on: CCRF-CEM leukemia
COLO 205 colon = tested on: COLO 205 colon
DU-145 prostate = tested on: DU-145 prostate
HCC-2998 colon = tested on: HCC-2998 colon
HCT-116 colon = tested on: HCT-116 colon
HCT-15 colon = tested on: HCT-15 colon
HL-60(TB) leukemia = tested on: HL-60(TB) leukemia
HOP-62 NSCLC = tested on: HOP-62 NSCLC
HS 578T breast = tested on: HS 578T breast
HT29 colon = tested on: HT29 colon
IGROV1 ovarian = tested on: IGROV1 ovarian
K-562 leukemia = tested on: K-562 leukemia
KM12 colon = tested on: KM12 colon
LOX IMVI melanoma = tested on: LOX IMVI melanoma
M14 melanoma = tested on: M14 melanoma
MCF7 breast = tested on: MCF7 breast
MDA-MB-231 breast = tested on: MDA-MB-231 breast
MDA-MB-435 = tested on: MDA-MB-435
MOLT-4 leukemia = tested on: MOLT-4 leukemia
NCI-H226 lung = tested on: NCI-H226 lung
NCI-H460 lung = tested on: NCI-H460 lung
NCI-H522 lung = tested on: NCI-H522 lung
NCI/ADR-RES ovarian = tested on: NCI/ADR-RES ovarian
OVCAR-3 ovarian = tested on: OVCAR-3 ovarian
OVCAR-4 ovarian = tested on: OVCAR-4 ovarian
OVCAR-5 ovarian = tested on: OVCAR-5 ovarian
OVCAR-8 ovarian = tested on: OVCAR-8 ovarian
PC-3 prostate = tested on: PC-3 prostate
RPMI-8226 leukemia = tested on: RPMI-8226 leukemia
RXF 393 renal = tested on: RXF 393 renal
SF-268 CNS = tested on: SF-268 CNS
SF-295 CNS = tested on: SF-295 CNS
SF-539 CNS = tested on: SF-539 CNS
SK-MEL-2 melanoma = tested on: SK-MEL-2 melanoma
SK-MEL-28 melanoma = tested on: SK-MEL-28 melanoma
SK-MEL-5 melanoma = tested on: SK-MEL-5 melanoma
SK-OV-3 ovarian = tested on: SK-OV-3 ovarian
SN12C renal = tested on: SN12C renal
SNB-19 CNS = tested on: SNB-19 CNS
SNB-75 CNS = tested on: SNB-75 CNS
SR leukemia = tested on: SR leukemia
SW-620 colon = tested on: SW-620 colon
U251 CNS = tested on: U251 CNS
UACC-257 melanoma = tested on: UACC-257 melanoma
UACC-62 melanoma = tested on: UACC-62 melanoma
UO-31 renal = tested on: UO-31 renal
EKVX NSCLC = tested on: EKVX NSCLC
HOP-92 NSCLC = tested on: HOP-92 NSCLC
MALME-3M melanoma = tested on: MALME-3M melanoma
NCI-H23 lung = tested on: NCI-H23 lung
TK-10 renal = tested on: TK-10 renal
T-47D breast = tested on: T-47D breast

## C=CC[P+](c1ccccc1)(c1ccccc1)c1ccccc1
786-0 renal
  GI50: 27.6 µM
  TGI: > 100 µM
A498 renal
  GI50: 7.09 µM
  TGI: 63 µM
A549 NSCLC
  GI50: 4.54 µM
  TGI: > 100 µM
ACHN renal
  GI50: > 100 µM
  TGI: > 100 µM
BT-549 breast
  GI50: 4.05 µM
  TGI: 94.5 µM
CAKI-1 renal
  GI50: 52.2 µM
  TGI: > 100 µM
CCRF-CEM leukemia
  GI50: 3.4 µM
  TGI: > 100 µM
COLO 205 colon
  GI50: 2.66 µM
  TGI: 14.1 µM
DU-145 prostate
  GI50: 7.33 µM
  TGI: > 100 µM
HCC-2998 colon
  GI50: 3.19 µM
  TGI: > 100 µM
HCT-116 colon
  GI50: 3.48 µM
  TGI: > 100 µM
HCT-15 colon
  GI50: > 100 µM
  TGI: > 100 µM
HL-60(TB) leukemia
  GI50: 1.58 µM
  TGI: 6.03 µM
HOP-62 NSCLC
  GI50: 12.1 µM
  TGI: > 100 µM
HS 578T breast
  GI50: 10.1 µM
  TGI: > 100 µM
HT29 colon
  GI50: 3.21 µM
  TGI: > 100 µM
IGROV1 ovarian
  GI50: 9.74 µM
  TGI: > 100 µM
K-562 leukemia
  GI50: 2.12 µM
  TGI: > 100 µM
KM12 colon
  GI50: 1.46 µM
  TGI: > 100 µM
LOX IMVI melanoma
  GI50: 6.53 µM
  TGI: > 100 µM
M14 melanoma
  GI50: 8.09 µM
  TGI: > 100 µM
MCF7 breast
  GI50: 2.84 µM
  TGI: > 100 µM
MDA-MB-231 breast
  GI50: 7.61 µM
  TGI: > 100 µM
MDA-MB-435
  GI50: 2.07 µM
  TGI: 19.3 µM
MOLT-4 leukemia
  GI50: 5.07 µM
  TGI: > 100 µM
NCI-H226 lung
  GI50: 5.88 µM
  TGI: > 100 µM
NCI-H460 lung
  GI50: 4.54 µM
  TGI: > 100 µM
NCI-H522 lung
  GI50: 1.99 µM
  TGI: 20.8 µM
NCI/ADR-RES ovarian
  GI50: > 100 µM
  TGI: > 100 µM
OVCAR-3 ovarian
  GI50: 1.99 µM
  TGI: > 100 µM
OVCAR-4 ovarian
  GI50: 2.84 µM
  TGI: > 100 µM
OVCAR-5 ovarian
  GI50: 13.4 µM
  TGI: > 100 µM
OVCAR-8 ovarian
  GI50: 3.25 µM
  TGI: > 100 µM
PC-3 prostate
  GI50: 1.78 µM
  TGI: 33.5 µM
RPMI-8226 leukemia
  GI50: 0.675 µM
  TGI: 32.2 µM
RXF 393 renal
  GI50: 27.6 µM
  TGI: > 100 µM
SF-268 CNS
  GI50: 5.46 µM
  TGI: > 100 µM
SF-295 CNS
  GI50: 4.58 µM
  TGI: 28.2 µM
SF-539 CNS
  GI50: 8.42 µM
  TGI: > 100 µM
SK-MEL-2 melanoma
  GI50: 3.36 µM
  TGI: 16.4 µM
SK-MEL-28 melanoma
  GI50: 11.3 µM
  TGI: > 100 µM
SK-MEL-5 melanoma
  GI50: 1.6 µM
  TGI: 5.27 µM
SK-OV-3 ovarian
  GI50: 19.2 µM
  TGI: > 100 µM
SN12C renal
  GI50: 6.36 µM
  TGI: > 100 µM
SNB-19 CNS
  GI50: 4.1 µM
  TGI: > 100 µM
SNB-75 CNS
  GI50: 3.58 µM
  TGI: 57.9 µM
SR leukemia
  GI50: 1.45 µM
  TGI: > 100 µM
SW-620 colon
  GI50: 5.64 µM
  TGI: > 100 µM
U251 CNS
  GI50: 3.44 µM
  TGI: > 100 µM
UACC-257 melanoma
  GI50: 0.877 µM
  TGI: 6.66 µM
UACC-62 melanoma
  GI50: 2.69 µM
  TGI: > 100 µM
UO-31 renal
  GI50: 84 µM
  TGI: > 100 µM

## O=C(CSC(c1ccccc1)c1ccccc1)N/N=C/c1cccc(Cl)c1
786-0 renal
  GI50: 17.3 µM
  TGI: 32.7 µM
A498 renal
  GI50: 14.9 µM
  TGI: 29 µM
A549 NSCLC
  GI50: 15.1 µM
  TGI: 40.1 µM
ACHN renal
  GI50: 13.7 µM
  TGI: 26.6 µM
BT-549 breast
  GI50: 17.9 µM
  TGI: 32.2 µM
CAKI-1 renal
  GI50: 23.4 µM
  TGI: 52.5 µM
CCRF-CEM leukemia
  GI50: 0.755 µM
  TGI: 31 µM
DU-145 prostate
  GI50: 16.4 µM
  TGI: 30 µM
EKVX NSCLC
  GI50: 16.3 µM
  TGI: 35.9 µM
HCC-2998 colon
  GI50: 18.6 µM
  TGI: 32.6 µM
HCT-116 colon
  GI50: 15.7 µM
  TGI: 29.1 µM
HCT-15 colon
  GI50: 19.6 µM
  TGI: 38.6 µM
HL-60(TB) leukemia
  GI50: 13.8 µM
  TGI: 33.9 µM
HOP-62 NSCLC
  GI50: 17.3 µM
  TGI: 31.6 µM
HOP-92 NSCLC
  GI50: 21.2 µM
  TGI: 37.2 µM
HS 578T breast
  GI50: 15.7 µM
  TGI: 38.2 µM
IGROV1 ovarian
  GI50: 15.2 µM
  TGI: 28.8 µM
K-562 leukemia
  GI50: 21.6 µM
  TGI: 41.9 µM
KM12 colon
  GI50: 17.3 µM
  TGI: 33.2 µM
LOX IMVI melanoma
  GI50: 17.9 µM
  TGI: 33.3 µM
M14 melanoma
  GI50: 15.3 µM
  TGI: 29 µM
MALME-3M melanoma
  GI50: 13 µM
  TGI: 26.1 µM
MCF7 breast
  GI50: 19.1 µM
  TGI: 38.4 µM
MDA-MB-231 breast
  GI50: 14.4 µM
  TGI: 28.6 µM
MDA-MB-435
  GI50: 22.5 µM
  TGI: 43.7 µM
MOLT-4 leukemia
  GI50: 19.1 µM
  TGI: 43.2 µM
NCI-H226 lung
  GI50: 15.6 µM
  TGI: 31.3 µM
NCI-H23 lung
  GI50: 14.9 µM
  TGI: 29 µM
NCI-H460 lung
  GI50: 17.6 µM
  TGI: 34.8 µM
NCI-H522 lung
  GI50: 10.1 µM
  TGI: 23.7 µM
NCI/ADR-RES ovarian
  GI50: 14.3 µM
  TGI: 31.8 µM
OVCAR-3 ovarian
  GI50: 21.4 µM
  TGI: 38.9 µM
OVCAR-4 ovarian
  GI50: 15 µM
  TGI: 30.8 µM
OVCAR-5 ovarian
  GI50: 17.5 µM
  TGI: 33.8 µM
OVCAR-8 ovarian
  GI50: 17.6 µM
  TGI: 39.6 µM
PC-3 prostate
  GI50: 19.4 µM
  TGI: 35.7 µM
RPMI-8226 leukemia
  GI50: 19 µM
  TGI: 41.7 µM
RXF 393 renal
  GI50: 13.9 µM
  TGI: 29.5 µM
SF-268 CNS
  GI50: 17.5 µM
  TGI: 35 µM
SF-295 CNS
  GI50: 22.9 µM
  TGI: 44.8 µM
SF-539 CNS
  GI50: 18.8 µM
  TGI: 33.3 µM
SK-MEL-2 melanoma
  GI50: 15.7 µM
  TGI: 30.1 µM
SK-MEL-5 melanoma
  GI50: 11.4 µM
  TGI: 23.7 µM
SR leukemia
  GI50: 17.7 µM
  TGI: 38.3 µM
SW-620 colon
  GI50: 15 µM
  TGI: 29.2 µM
TK-10 renal
  GI50: 19.2 µM
  TGI: 34.9 µM
U251 CNS
  GI50: 17.7 µM
  TGI: 31.5 µM
UACC-257 melanoma
  GI50: 14.6 µM
  TGI: 32.1 µM
UACC-62 melanoma
  GI50: 16 µM
  TGI: 30.3 µM
UO-31 renal
  GI50: 11.7 µM
  TGI: 23.9 µM

## O=C(O)c1ccc(-c2nc3ccc(Cl)cc3[nH]2)cc1
786-0 renal
  TGI: > 100 µM
A549 NSCLC
  TGI: > 100 µM
BT-549 breast
  TGI: > 100 µM
CAKI-1 renal
  TGI: > 100 µM
CCRF-CEM leukemia
  TGI: > 100 µM
COLO 205 colon
  TGI: > 100 µM
EKVX NSCLC
  TGI: > 100 µM
HCC-2998 colon
  TGI: > 100 µM
HCT-15 colon
  TGI: > 100 µM
HL-60(TB) leukemia
  TGI: > 100 µM
HOP-62 NSCLC
  TGI: > 100 µM
HOP-92 NSCLC
  TGI: > 100 µM
HS 578T breast
  TGI: > 100 µM
HT29 colon
  TGI: > 100 µM
IGROV1 ovarian
  TGI: > 100 µM
K-562 leukemia
  TGI: > 100 µM
KM12 colon
  TGI: > 100 µM
M14 melanoma
  TGI: > 100 µM
MCF7 breast
  TGI: > 100 µM
MDA-MB-231 breast
  TGI: > 100 µM
MOLT-4 leukemia
  TGI: > 100 µM
NCI-H226 lung
  TGI: > 100 µM
NCI-H522 lung
  TGI: > 100 µM
NCI/ADR-RES ovarian
  TGI: > 100 µM
OVCAR-3 ovarian
  TGI: > 100 µM
OVCAR-8 ovarian
  TGI: > 100 µM
PC-3 prostate
  TGI: > 100 µM
RPMI-8226 leukemia
  TGI: > 100 µM
RXF 393 renal
  TGI: > 100 µM
SF-295 CNS
  TGI: > 100 µM
SF-539 CNS
  TGI: > 100 µM
SK-MEL-2 melanoma
  TGI: > 100 µM
SK-MEL-5 melanoma
  TGI: > 100 µM
SK-OV-3 ovarian
  TGI: > 100 µM
SN12C renal
  TGI: > 100 µM
SNB-19 CNS
  TGI: > 100 µM
SNB-75 CNS
  TGI: > 100 µM
SR leukemia
  TGI: > 100 µM
SW-620 colon
  TGI: > 100 µM
T-47D breast
  TGI: > 100 µM
U251 CNS
  TGI: > 100 µM
UO-31 renal
  TGI: > 100 µM
